# Experimental data as given in ChEMBL document CHEMBL6078670, “Discovery of a potent and selective TRPC3 antagonist with neuroprotective effects” (Bioorg Med Chem, 2025).
# The source made the active and inactive calls. The rule behind the calls is not given here.
# How the values were obtained:
# [1] = target: T1, Short transient receptor potential channel 3 (Homo sapiens) (UniProt Q13507); assay: Antagonist activity at human TRPC3 expressed in HEK293 cells assessed as inhibition of carbachol-induced activity at 10 uM measured after 48 hrs by Whole-cell patch clamp electrophysiology relative to control; format: cell-based; conditions: filed as antagonist
# T1 sequence (whole entry): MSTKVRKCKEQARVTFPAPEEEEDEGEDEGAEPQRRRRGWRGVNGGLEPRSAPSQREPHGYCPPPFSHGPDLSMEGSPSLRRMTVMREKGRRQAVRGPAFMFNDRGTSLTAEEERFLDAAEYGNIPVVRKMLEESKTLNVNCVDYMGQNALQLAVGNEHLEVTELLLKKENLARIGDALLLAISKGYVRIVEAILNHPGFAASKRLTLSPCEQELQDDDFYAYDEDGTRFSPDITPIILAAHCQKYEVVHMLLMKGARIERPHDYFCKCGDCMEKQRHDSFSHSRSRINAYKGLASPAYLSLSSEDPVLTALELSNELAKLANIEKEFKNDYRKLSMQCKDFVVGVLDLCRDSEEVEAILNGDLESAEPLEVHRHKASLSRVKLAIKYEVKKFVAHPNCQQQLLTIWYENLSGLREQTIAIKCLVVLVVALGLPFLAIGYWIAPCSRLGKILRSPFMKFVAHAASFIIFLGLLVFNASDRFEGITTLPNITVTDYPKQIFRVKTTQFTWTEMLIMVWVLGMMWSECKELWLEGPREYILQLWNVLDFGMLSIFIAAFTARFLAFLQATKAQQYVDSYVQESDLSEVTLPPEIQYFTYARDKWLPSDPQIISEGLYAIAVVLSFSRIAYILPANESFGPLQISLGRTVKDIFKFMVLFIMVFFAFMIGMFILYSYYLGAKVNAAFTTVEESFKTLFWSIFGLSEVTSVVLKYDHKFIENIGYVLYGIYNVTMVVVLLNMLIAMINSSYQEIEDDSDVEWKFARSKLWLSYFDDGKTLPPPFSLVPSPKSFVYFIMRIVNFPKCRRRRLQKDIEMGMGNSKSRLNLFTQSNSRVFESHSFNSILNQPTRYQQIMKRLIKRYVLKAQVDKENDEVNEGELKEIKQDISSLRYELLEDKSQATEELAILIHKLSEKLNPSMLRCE
# [2] = target: T2, Short transient receptor potential channel 7 (Homo sapiens) (UniProt Q9HCX4); assay: Antagonist activity at human TRPC7 expressed in HEK293 cells assessed as inhibition of carbachol-induced activity at 10 uM measured after 48 hrs by Whole-cell patch clamp electrophysiology; format: cell-based
# T2 sequence (whole entry): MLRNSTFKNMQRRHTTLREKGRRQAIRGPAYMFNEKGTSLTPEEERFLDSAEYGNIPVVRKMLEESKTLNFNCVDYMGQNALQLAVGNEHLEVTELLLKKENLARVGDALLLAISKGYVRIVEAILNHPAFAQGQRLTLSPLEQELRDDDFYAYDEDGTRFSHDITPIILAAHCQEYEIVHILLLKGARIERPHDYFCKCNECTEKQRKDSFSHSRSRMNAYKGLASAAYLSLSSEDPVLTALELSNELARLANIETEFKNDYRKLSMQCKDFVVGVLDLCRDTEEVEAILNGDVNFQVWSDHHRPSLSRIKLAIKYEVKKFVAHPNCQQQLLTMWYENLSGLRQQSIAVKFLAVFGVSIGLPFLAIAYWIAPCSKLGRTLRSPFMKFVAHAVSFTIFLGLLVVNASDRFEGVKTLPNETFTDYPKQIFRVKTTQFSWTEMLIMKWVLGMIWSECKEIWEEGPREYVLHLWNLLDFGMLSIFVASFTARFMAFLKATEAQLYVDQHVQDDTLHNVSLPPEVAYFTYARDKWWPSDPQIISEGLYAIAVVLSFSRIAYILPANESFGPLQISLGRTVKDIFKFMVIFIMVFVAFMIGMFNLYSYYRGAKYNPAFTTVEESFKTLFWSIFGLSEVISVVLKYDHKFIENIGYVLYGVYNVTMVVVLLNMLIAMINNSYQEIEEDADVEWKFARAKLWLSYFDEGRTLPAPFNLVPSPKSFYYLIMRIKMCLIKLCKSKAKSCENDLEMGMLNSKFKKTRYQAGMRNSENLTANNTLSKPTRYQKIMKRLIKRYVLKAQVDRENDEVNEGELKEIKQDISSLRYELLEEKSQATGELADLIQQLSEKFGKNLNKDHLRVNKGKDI
# [3] = target: Short transient receptor potential channel 1 (Mus musculus) (UniProt Q61056); assay: Antagonist activity at mouse TRPC1 expressed in HEK293 cells assessed as inhibition of carbachol-induced activity at 10 uM measured after 48 hrs by Whole-cell patch clamp electrophysiology; format: cell-based
# Sequence of Short transient receptor potential channel 1 (Mus musculus) (Q61056 whole entry): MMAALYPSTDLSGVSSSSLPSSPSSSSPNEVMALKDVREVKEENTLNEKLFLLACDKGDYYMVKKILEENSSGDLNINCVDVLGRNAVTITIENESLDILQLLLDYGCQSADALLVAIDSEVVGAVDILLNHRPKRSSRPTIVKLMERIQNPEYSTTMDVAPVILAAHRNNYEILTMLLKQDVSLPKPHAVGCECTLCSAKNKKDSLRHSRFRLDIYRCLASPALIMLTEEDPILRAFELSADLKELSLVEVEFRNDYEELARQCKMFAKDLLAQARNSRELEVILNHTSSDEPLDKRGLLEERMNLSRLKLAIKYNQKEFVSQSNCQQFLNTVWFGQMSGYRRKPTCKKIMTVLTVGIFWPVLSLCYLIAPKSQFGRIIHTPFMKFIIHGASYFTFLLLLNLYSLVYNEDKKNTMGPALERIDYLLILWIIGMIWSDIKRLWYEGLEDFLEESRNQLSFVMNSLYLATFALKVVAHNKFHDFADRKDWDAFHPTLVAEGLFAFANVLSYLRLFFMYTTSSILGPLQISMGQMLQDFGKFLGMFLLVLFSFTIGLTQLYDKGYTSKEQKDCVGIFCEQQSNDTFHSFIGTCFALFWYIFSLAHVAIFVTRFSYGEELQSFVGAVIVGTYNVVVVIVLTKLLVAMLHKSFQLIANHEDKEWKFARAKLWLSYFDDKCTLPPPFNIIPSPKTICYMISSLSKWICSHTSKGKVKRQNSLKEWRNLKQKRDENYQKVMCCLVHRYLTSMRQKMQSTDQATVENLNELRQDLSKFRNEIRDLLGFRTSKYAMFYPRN
# [4] = target: Transient receptor potential cation channel subfamily M member 8 (Rattus norvegicus) (UniProt Q8R455); assay: Antagonist activity at rat TRPM8 expressed in HEK293 cells assessed as inhibition of carbachol-induced activity at 10 uM measured after 48 hrs by Whole-cell patch clamp electrophysiology; format: cell-based
# Sequence of Transient receptor potential cation channel subfamily M member 8 (Rattus norvegicus) (Q8R455 whole entry, looked up): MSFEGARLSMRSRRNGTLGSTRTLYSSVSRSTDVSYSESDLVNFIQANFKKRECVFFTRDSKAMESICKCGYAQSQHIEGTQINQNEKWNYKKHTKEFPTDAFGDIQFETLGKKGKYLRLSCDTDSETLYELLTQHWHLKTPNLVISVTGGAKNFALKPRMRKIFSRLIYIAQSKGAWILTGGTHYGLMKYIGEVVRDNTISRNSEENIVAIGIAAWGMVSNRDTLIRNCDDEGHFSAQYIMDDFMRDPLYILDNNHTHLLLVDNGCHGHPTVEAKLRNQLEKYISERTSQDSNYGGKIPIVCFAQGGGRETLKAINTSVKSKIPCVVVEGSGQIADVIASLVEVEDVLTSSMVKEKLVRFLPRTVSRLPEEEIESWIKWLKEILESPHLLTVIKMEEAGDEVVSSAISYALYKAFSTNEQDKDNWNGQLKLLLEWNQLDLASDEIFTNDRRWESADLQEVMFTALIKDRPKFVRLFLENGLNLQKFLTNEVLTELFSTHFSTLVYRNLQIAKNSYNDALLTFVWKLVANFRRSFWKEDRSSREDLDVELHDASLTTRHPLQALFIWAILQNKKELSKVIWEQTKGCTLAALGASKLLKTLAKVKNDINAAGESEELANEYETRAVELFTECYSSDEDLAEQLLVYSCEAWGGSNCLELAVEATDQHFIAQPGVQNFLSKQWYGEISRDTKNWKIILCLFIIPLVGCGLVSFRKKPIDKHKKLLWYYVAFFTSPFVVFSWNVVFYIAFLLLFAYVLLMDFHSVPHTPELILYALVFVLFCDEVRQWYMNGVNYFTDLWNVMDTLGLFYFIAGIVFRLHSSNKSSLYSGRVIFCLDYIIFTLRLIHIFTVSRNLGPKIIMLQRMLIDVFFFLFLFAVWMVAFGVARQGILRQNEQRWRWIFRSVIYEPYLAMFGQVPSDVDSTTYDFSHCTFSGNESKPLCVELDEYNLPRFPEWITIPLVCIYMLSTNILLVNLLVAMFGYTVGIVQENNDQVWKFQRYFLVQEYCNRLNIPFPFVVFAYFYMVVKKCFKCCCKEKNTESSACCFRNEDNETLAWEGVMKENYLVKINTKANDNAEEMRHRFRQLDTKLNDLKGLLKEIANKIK
# [5] = Kinetic solubility of the compound in ph 7.4 PBS buffer measured after 24 hrs shaken by HPLC and UPLC system; format: physicochemical; conditions: read-out: Kinetic_solubility
# [6] = Metabolic stability in human liver microsomes assessed as half life measured up to 60 mins by LC-MS/MS analysis; format: ADME, Microsome; conditions: 1 h
# [7] = Metabolic stability in human liver microsomes assessed as intrinsic clearance measured up to 60 mins by LC-MS/MS analysis; format: ADME, Microsome; conditions: 1 h
# [8] = Metabolic stability in mouse liver microsomes assessed as half life measured up to 60 mins by LC-MS/MS analysis; format: ADME, Microsome; conditions: 1 h
# Cytochrome P450 2C9 = Cytochrome P450 2C9 (Homo sapiens, UniProt P11712); assay: Inhibition of human liver microsomes CYP2C9 measured after 10 mins incubation by LC-MS analysis; format: ADME, Microsome
# Sequence of Cytochrome P450 2C9 (P11712 whole entry): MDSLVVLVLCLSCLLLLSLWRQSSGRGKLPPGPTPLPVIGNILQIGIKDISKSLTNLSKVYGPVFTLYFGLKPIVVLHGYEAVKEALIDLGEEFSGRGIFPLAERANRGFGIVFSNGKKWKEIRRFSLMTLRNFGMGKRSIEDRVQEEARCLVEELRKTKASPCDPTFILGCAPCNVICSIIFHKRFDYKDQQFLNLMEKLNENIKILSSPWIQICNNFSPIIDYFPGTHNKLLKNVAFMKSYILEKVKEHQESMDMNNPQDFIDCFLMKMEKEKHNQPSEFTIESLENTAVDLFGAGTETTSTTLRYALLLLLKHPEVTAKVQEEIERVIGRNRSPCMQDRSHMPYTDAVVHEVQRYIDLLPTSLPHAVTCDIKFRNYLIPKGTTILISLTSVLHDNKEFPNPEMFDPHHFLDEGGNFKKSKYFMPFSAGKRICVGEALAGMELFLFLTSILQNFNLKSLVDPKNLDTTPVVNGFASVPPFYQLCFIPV
# Cytochrome P450 2C19 = Cytochrome P450 2C19 (Homo sapiens, UniProt P33261); assay: Inhibition of human liver microsomes CYP2C19 measured after 10 mins incubation by LC-MS analysis; format: ADME, Microsome
# Sequence of Cytochrome P450 2C19 (P33261 whole entry): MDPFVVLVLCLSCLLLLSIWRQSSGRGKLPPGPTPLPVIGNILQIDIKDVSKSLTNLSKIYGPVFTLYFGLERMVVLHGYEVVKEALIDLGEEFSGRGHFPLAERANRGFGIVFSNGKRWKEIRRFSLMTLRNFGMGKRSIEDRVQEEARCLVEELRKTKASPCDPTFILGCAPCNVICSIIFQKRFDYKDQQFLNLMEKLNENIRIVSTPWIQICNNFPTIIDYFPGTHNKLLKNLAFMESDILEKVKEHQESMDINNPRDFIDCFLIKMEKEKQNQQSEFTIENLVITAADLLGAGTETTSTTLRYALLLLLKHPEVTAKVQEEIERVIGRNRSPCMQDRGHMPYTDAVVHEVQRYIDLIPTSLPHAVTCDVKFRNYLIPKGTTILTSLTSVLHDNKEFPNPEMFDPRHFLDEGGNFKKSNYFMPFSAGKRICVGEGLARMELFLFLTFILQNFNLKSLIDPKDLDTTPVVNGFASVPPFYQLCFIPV
# Cytochrome P450 3A4 = Cytochrome P450 3A4 (Homo sapiens, UniProt P08684); assay: Inhibition of human liver microsomes CYP3A4-M measured after 10 mins incubation by LC-MS analysis; format: ADME, Microsome
# Sequence of Cytochrome P450 3A4 (P08684 whole entry): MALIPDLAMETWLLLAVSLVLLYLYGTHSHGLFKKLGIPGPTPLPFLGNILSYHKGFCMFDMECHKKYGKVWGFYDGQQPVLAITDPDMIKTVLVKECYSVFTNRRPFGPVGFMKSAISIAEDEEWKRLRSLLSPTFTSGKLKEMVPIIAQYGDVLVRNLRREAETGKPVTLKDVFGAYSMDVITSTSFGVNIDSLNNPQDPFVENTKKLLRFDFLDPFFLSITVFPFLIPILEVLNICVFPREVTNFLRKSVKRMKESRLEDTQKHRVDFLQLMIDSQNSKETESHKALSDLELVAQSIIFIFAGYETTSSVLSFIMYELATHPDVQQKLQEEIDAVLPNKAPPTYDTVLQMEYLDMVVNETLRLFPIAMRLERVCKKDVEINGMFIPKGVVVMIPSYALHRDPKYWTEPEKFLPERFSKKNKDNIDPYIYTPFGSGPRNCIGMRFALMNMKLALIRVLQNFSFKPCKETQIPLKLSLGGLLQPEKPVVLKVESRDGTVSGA
# Hippocampal neurone [9] = assay: (§1) Rescuing beta-amyloid induced neuronal cell damage in Sprague-Dawley rat primary hippocampal cell culture (composed of 60% primary neuron, 20% microglia and 20% astrocyte) assessed as decrease in soluble oligomeric Abeta-containing media (7PA2 cells) induced synaptic toxicity at 100 nM; format: functional, cell-based
# Hippocampal neurone [10] = assay: as §1, with “functional synapses by measuring decrease in SynI clustering level” for “synaptic toxicity”; format: cell-based
# Hippocampal neurone [11] = assay: as §1, with “functional synapses by measuring decrease in PSD95 clustering level” for “synaptic toxicity”; format: cell-based
# Hippocampal neurone [12] = assay: as §1, with “microgliosis (Iba1)” for “synaptic toxicity”, “500” for “100”, “nM by immunostaining analysis” for “nM”; format: functional, cell-based
# Hippocampal neurone [13] = assay: as §1, with “astrogliosis (GFAP)” for “synaptic toxicity”, “500” for “100”, “nM by immunostaining analysis” for “nM”; format: functional, cell-based
smiles,measurement,setting,value
CCNCc1cnn(-c2ccc(-n3ccc(Cl)c(Cl)c3=O)cc2)c1C(F)(F)F,inhibition,[1],> 97%
same,Activity,[2],inactive
same,Activity,[3],inactive
same,Activity,[4],inactive
same,solubility kinetic at 24 h,[5],0.2 µM
same,t1/2,[6],3.17 h
same,CLH,[7],3.73 µL/min/mg
same,t1/2,[8],0.35 h
same,IC50,Cytochrome P450 2C9,> 50 µM
same,IC50,Cytochrome P450 2C19,41.5 µM
same,IC50,Cytochrome P450 3A4,> 50 µM
same,Activity,Hippocampal neurone [9],Active
same,Activity,Hippocampal neurone [10],Active
same,Activity,Hippocampal neurone [11],Active
same,Activity,Hippocampal neurone [12],Active
same,Activity,Hippocampal neurone [13],Active
